The supplement of paper PMC10307832

Legend:
Assay in all cases: relative viability (nuclei count vs DMSO), 5 days (fraction); higher = more cells survive
[1] = compound: COC1=CC(c2cc3ccccc3[nH]2)=N/C1=C\c1[nH]c(C)cc1C [Obatoclax] + O=C(c1cc(Cc2n[nH]c(=O)c3ccccc23)ccc1F)N1CCN(C(=O)C2CC2)CC1 [Olaparib] (partner 8 µM)
Outline: (§1)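 Dosing by pin tool came one day after lung cancer cell lines were seeded in 1536-well plates, using either one drug or a fixed anchor-drug dose plus five library-drug doses (not always all listed) in √10 steps. After 5 days, nuclei were counted on 4× images. Relative viability is treated-well nuclei count divided by vehicle-well nuclei count, and values are medians of duplicate plates.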

[2] = compound: COC1=CC(c2cc3ccccc3[nH]2)=N/C1=C\c1[nH]c(C)cc1C [Obatoclax] + N=C(N)NC(=N)NCCc1ccccc1 [Phenformin] (partner 250 µM)
Outline: as §1

[3] = compound: CC1=CC(=NN1)NC2=CC(=NC(=N2)/C=C/C3=CC=CC=C3)N4CCN(CC4)C + Cc1nc(Nc2ncc(C(=O)Nc3c(C)cccc3Cl)s2)cc(N2CCN(CCO)CC2)n1 [Dasatinib] (partner 0.075 µM)
Outline: as §1

[4] = compound: COC1=CC(c2cc3ccccc3[nH]2)=N/C1=C\c1[nH]c(C)cc1C [Obatoclax] + CC1(C)CCC(c2ccc(Cl)cc2)=C(CN2CCN(c3ccc(C(=O)NS(=O)(=O)c4ccc(N[C@H](CCN5CCOCC5)CSc5ccccc5)c(S(=O)(=O)C(F)(F)F)c4)cc3)CC2)C1 [Navitoclax] (partner 0.5 µM)
Outline: as §1

| Cell Line | relative viability ([1]; first compound 0.01 µM) | relative viability ([1]; first compound 0.03162 µM) | relative viability ([1]; first compound 0.3162 µM) | relative viability ([1]; first compound 1 µM) | relative viability ([2]; first compound 0.01 µM) | relative viability ([2]; first compound 0.03162 µM) | relative viability ([2]; first compound 0.1 µM) | relative viability ([2]; first compound 0.3162 µM) | relative viability ([2]; first compound 1 µM) | relative viability ([3]; first compound 0.08 µM) | relative viability ([3]; first compound 0.253 µM) | relative viability ([3]; first compound 0.8 µM) | relative viability ([3]; first compound 2.53 µM) | relative viability ([3]; first compound 8 µM) | relative viability ([4]; first compound 0.01 µM) | relative viability ([4]; first compound 0.03162 µM) | relative viability ([4]; first compound 0.1 µM) | relative viability ([4]; first compound 0.3162 µM) | relative viability ([4]; first compound 1 µM) | relative viability ([1]; first compound 0.1 µM) |
| --- | --- | --- | --- | --- | --- | --- | --- | --- | --- | --- | --- | --- | --- | --- | --- | --- | --- | --- | --- | --- |
| LU99A | 0.292 | 0.243 | 0.313 | 0.321 | 0.885 | 0.854 | 0.74 | 0.77 | 0.417 | 0.546 | 0.547 | 0.475 | 0.22 | 0.146 | 0.855 | 0.788 | 0.831 | 0.501 | 0.545 | – |
| LXF-289 | 1.05 | 1.1 | 1.09 | 1 | 0.484 | 0.53 | 0.496 | 0.505 | 0.458 | 0.258 | 0.26 | 0.187 | 0.0576 | 0.0234 | 0.912 | 0.883 | 0.926 | 0.905 | 0.96 | 0.972 |
| NCI-H23 | 0.288 | 0.369 | 0.28 | 0.206 | 0.745 | 0.746 | 0.821 | 0.718 | 0.597 | 0.769 | 0.764 | 0.815 | 0.683 | 0.137 | 0.907 | 0.733 | 0.847 | 0.537 | 0.813 | 0.398 |
| NCI-H322M | 0.823 | 0.739 | 0.758 | 0.724 | 0.855 | 0.603 | – | 0.824 | 0.62 | 0.268 | 0.254 | 0.228 | 0.206 | 0.209 | 1.16 | 1.26 | 1.29 | 1.14 | 1.39 | 0.961 |
| NCI-H441 | 0.63 | 0.6 | 0.359 | 0.288 | 0.664 | 0.79 | 0.771 | 0.614 | 0.475 | 0.526 | 0.443 | 0.61 | 0.159 | 0.117 | 0.775 | 0.535 | 0.832 | 0.546 | 0.259 | 0.527 |
| NCI-H460 | 0.422 | 0.408 | 0.339 | 0.14 | 0.448 | 0.53 | 0.441 | 0.25 | 0.112 | 0.545 | 0.546 | 0.487 | 0.144 | 0.0157 | 1.08 | 1.2 | 1.12 | 0.034 | 0.0115 | – |
| NCI-H520 | 0.301 | 0.323 | 0.289 | 0.208 | 0.677 | 0.562 | 0.589 | 0.532 | 0.455 | 0.202 | 0.194 | 0.166 | 0.143 | 0.118 | 1.1 | 1.16 | 1.07 | 0.795 | 0.288 | 0.372 |
| NCI-H596 | 0.671 | 0.675 | 0.492 | 0.458 | 0.768 | 0.764 | 0.741 | 0.711 | 0.583 | 0.638 | 0.522 | 0.536 | 0.357 | 0.216 | 0.898 | 0.74 | 0.775 | 0.519 | 0.583 | 0.552 |
| NCI-H647 | 0.633 | 0.539 | 0.174 | 0.067 | 0.566 | 0.576 | 0.518 | 0.252 | 0.146 | 0.185 | 0.186 | 0.2 | 0.0436 | 0.0226 | 1.11 | 0.974 | 0.633 | 0.477 | 0.229 | 0.547 |
| NCI-H727 | 0.815 | 0.883 | 0.637 | 0.697 | 0.692 | 0.499 | 0.552 | 0.529 | 0.517 | 0.372 | – | 0.407 | 0.257 | 0.186 | 0.416 | 0.487 | 0.409 | 0.451 | 0.262 | 0.708 |
| NCI-H838 | 0.747 | 0.79 | 0.577 | 0.255 | 0.567 | 0.622 | 0.362 | 0.46 | 0.322 | 0.3 | 0.279 | 0.247 | 0.255 | 0.141 | 1.14 | 1.26 | 1.03 | 0.776 | 0.573 | 0.792 |
| NCI-H1355 | 0.76 | 0.767 | 0.667 | 0.717 | 0.456 | 0.458 | 0.431 | 0.44 | 0.397 | 0.723 | 0.727 | 0.684 | 0.248 | 0.121 | 0.883 | 0.976 | 0.953 | 0.885 | 0.91 | 0.781 |
| NCI-H1395 | 0.454 | 0.418 | 0.529 | 0.332 | 0.449 | 0.38 | 0.428 | 0.467 | 0.44 | 0.424 | 0.409 | 0.4 | 0.344 | 0.28 | 1.2 | 1.13 | 0.949 | 0.865 | 0.69 | 0.444 |
| NCI-H1437 | 0.634 | 0.623 | 0.623 | 0.533 | 0.242 | 0.317 | 0.314 | 0.296 | 0.246 | 0.377 | 0.455 | 0.404 | 0.273 | 0.0967 | 1.03 | 1.1 | 1.08 | 1.1 | 0.746 | 0.626 |
| NCI-H1650 | 0.764 | 0.742 | 0.539 | 0.229 | 0.429 | 0.427 | 0.494 | 0.449 | 0.295 | 0.376 | 0.288 | 0.37 | 0.125 | 0.0926 | 1.03 | 1.08 | 1.18 | 0.986 | 0.239 | 0.774 |
| NCI-H1651 | 0.182 | 0.164 | 0.224 | 0.179 | 0.384 | 0.324 | 0.386 | 0.252 | 0.184 | 0.423 | 0.398 | 0.407 | 0.171 | 0.116 | 1.04 | 0.991 | 0.968 | 0.507 | 0.224 | 0.189 |
| NCI-H1666 | 0.769 | 0.726 | 0.691 | 0.585 | 0.576 | 0.542 | 0.571 | 0.494 | 0.421 | 0.787 | 0.874 | 0.778 | 0.659 | 0.294 | 0.839 | 1.31 | 0.865 | 0.388 | 0.277 | 0.766 |
| NCI-H1734 | 0.609 | 0.624 | 0.546 | 0.505 | 0.436 | 0.341 | 0.318 | 0.318 | 0.32 | 0.4 | 0.454 | 0.464 | 0.257 | 0.111 | 0.745 | 0.841 | – | 0.723 | 0.668 | 0.601 |
| NCI-H1755 | 0.873 | 0.901 | 0.787 | 0.839 | 0.622 | 0.6 | 0.492 | 0.634 | 0.541 | 0.465 | 0.466 | 0.425 | 0.253 | 0.14 | 0.974 | 0.966 | 1 | 0.951 | 1.04 | 0.868 |
| NCI-H1792 | 0.423 | 0.334 | 0.369 | 0.405 | 0.371 | – | – | 0.176 | 0.0627 | 0.749 | 0.848 | 0.733 | 0.525 | 0.151 | 0.647 | 0.586 | – | 0.626 | 0.561 | 0.299 |
| NCI-H1793 | 0.869 | 0.833 | 0.784 | 0.783 | 0.404 | 0.32 | 0.377 | 0.345 | 0.332 | 0.379 | 0.446 | 0.365 | 0.138 | 0.0977 | 0.337 | 0.291 | 0.51 | 0.422 | 0.47 | 0.939 |
| NCI-H1915 | 0.269 | 0.256 | 0.257 | 0.247 | 0.361 | 0.362 | 0.337 | 0.363 | 0.343 | 0.347 | 0.27 | 0.28 | 0.16 | 0.0845 | 0.766 | 0.638 | 0.711 | 0.76 | 0.785 | 0.252 |
| NCI-H1944 | 0.412 | 0.427 | 0.418 | 0.392 | 0.215 | 0.202 | 0.149 | 0.201 | 0.18 | 0.23 | 0.209 | 0.197 | 0.147 | 0.107 | 0.97 | 1.01 | 1.05 | 1.05 | 1.08 | 0.443 |
| NCI-H1975 | 0.78 | 0.695 | 0.744 | 0.288 | 0.438 | 0.427 | – | 0.355 | 0.228 | 0.356 | 0.394 | 0.325 | 0.124 | 0.061 | 1.18 | 1.1 | 0.975 | 0.943 | 1.01 | 0.746 |
| NCI-H1993 | 0.95 | 1.15 | 1.01 | 1.11 | 0.481 | 0.537 | 0.531 | 0.478 | 0.48 | 0.613 | 0.527 | 0.565 | 0.44 | 0.37 | 1.04 | 0.816 | 1.03 | 0.867 | 0.982 | 0.984 |
| NCI-H2009 | 0.687 | 0.712 | 0.573 | 0.26 | 0.472 | 0.507 | 0.385 | 0.27 | 0.194 | 0.325 | 0.307 | 0.329 | 0.15 | 0.0844 | 1.13 | 1.23 | 1.15 | 1.17 | 0.258 | 0.705 |
| NCI-H2023 | 0.485 | 0.574 | 0.246 | 0.15 | 0.387 | 0.438 | 0.425 | 0.293 | 0.152 | 0.575 | 0.588 | 0.555 | 0.0936 | 0.0621 | 0.96 | 1.02 | 0.911 | 0.906 | 0.612 | 0.442 |
